# Results published in patent US20090155209A1, “NOVEL MACROCYCLIC INHIBITORS OF HEPATITIS C VIRUS REPLICATION” (priority 2007, published 2009).
# “And” between values parts separate entries of the source, which are not always exact repeats. Identical values can stand only once. Like-named read-outs stand apart in the source and are kept apart here.
# Tests used:
# [1] = Single ascending dose study, fasted and fed: safety and non-compartmental plasma PK; type: in vivo, healthy volunteers (human); settings: for median percentage change in AUC0-inf between the fasted and fed conditions: 10 subjects
# Experimental: A single ascending dose (SAD) study of the compound 100 was conducted in healthy volunteers. The compound 100 was administered as monotherapy both with and without food. The safety and pharmacokinetic profile of the single dose of the compound 100 was assessed.
# Interim, blinded data were used for Pharmacokinetic (PK) study relating to food effects. With the exception of the 400 mg cohort, eight subjects were studied at each dose (single doses of 100, 200, or 800 mg of the sodium salt of the compound 100, which may be referred to herein as ITMN-191, administered in the fasting state). In the 400 mg cohort, ten subjects received single 400 mg doses of ITMN-191 under both fasted and fed conditions with a 5-day washout period between dosing. In the 100 mg cohort, subjects were sampled within 1 hour before dosing and at 0.5, 1, 1.5, 2, 2.5, 3, 4, 6, 8, 12, 18, 24, 32 and 48 hours after dosing. For subsequent cohorts, subjects were sampled within 1 hour before dosing and at 0.25, 0.5, 1, 1.5, 2, 2.5, 3, 4, 6, 8, 12, 18, 24, and 32 hours after dosing. Nominal (not actual) sampling times were used for the analysis. PK samples were analyzed using liquid chromatography-tandem mass spectrometry (LC/MS/MS with API 4000 mass spectrometer) following solid-phase extraction. The upper and lower limits of quantitation (ULOQ and LLOQ) are 100 and 0.01 ng/mL, respectively.
# Pharmacokinetic parameter estimates were calculated using non-compartmental methods (implemented using Microsoft Excel®). Half-lives were determined by visual inspection of the log concentration-time plots to choose the terminal phase (minimum of three detectable observations). Using linear regression of the chosen terminal phase observations, elimination rate constants were calculated as the negative slope of the regression line and half-life as the natural log of 2 divided by the elimination rate constant.
# Ten subjects received single 1600 mg doses of ITMN-191 under both fasted and fed conditions with a 5-day washout period between dosing. For each condition, subjects were sampled within 1 hour before dosing and at 0.25, 0.5, 1, 1.5, 2, 2.5, 3, 4, 6, 8, 12, 18, 24, and 32 hours after dosing. Pharmacokinetic parameter estimates were calculated using non-compartmental methods. Half-life (t1/2) was determined by visual inspection of the log concentration-time plots to choose the terminal phase (minimum of three detectable observations). Using linear regression of the chosen terminal phase observations, elimination rate constants were calculated as the negative slope and half-life as the natural log of 2 divided by the elimination rate constant.
# [2] = Compartmental PK model fitted to plasma data of the 400 mg fed cohort; type: in vivo, healthy volunteers (human); settings: median, compartmental PK parameter
# Experimental: The compartmental model was constructed to fit the PK data from the 400 mg, fed cohort only. Candidate PK models were fit to plasma data using weighted, non-linear regression implemented in Adapt 5. (1, 2) Each subjects' data were fit separately for a total of 10 fitted profiles. Model discrimination was accomplished according to the “Rule of Parsimony” based on Akaike's Information Criterion. (3, 4)
# The most robust fit to the data was obtained using a three-compartment model (one absorptive, two distributive) with first order absorption and elimination. […] No a priori assumptions regarding the number of phases were made; the fit of the observed data and the AIC were used to guide the selection of a one, two, or three-phase absorption.
# [3] = individual subjects, single 1600 mg dose, Fasted
# [4] = individual subjects, single 1600 mg dose, Fed
compound,measurement,setting,value
CC(C)(C)OC(=O)N[C@H]1CCCCC/C=C\[C@@H]2C[C@@]2(C(=O)NS(=O)(=O)C2CC2)NC(=O)[C@@H]2C[C@@H](OC(=O)N3Cc4cccc(F)c4C3)CN2C1=O [ITMN-191],Cmax,"[1]; human, plasma, oral, 1600 mg, Harmonic Mean of 10 subjects, single 1600 mg dose, Fasted, read-out: Cmax",453 ng/mL
same,half-life,"[1]; human, plasma, oral, 1600 mg, Harmonic Mean of 10 subjects, single 1600 mg dose, Fasted, read-out: t½ (converted)",2.29 h
same,AUC0-inf,"[1]; human, plasma, oral, 1600 mg, Harmonic Mean of 10 subjects, single 1600 mg dose, Fed, read-out: AUC0-inf",949 ng·h/mL
same,Cmax,"[1]; human, plasma, oral, 1600 mg, Harmonic Mean of 10 subjects, single 1600 mg dose, Fed, read-out: Cmax",326 ng/mL
same,half-life,"[1]; human, plasma, oral, 1600 mg, Harmonic Mean of 10 subjects, single 1600 mg dose, Fed, read-out: t½ (converted)",2.43 h
same,AUC0-inf,"[1]; human, plasma, oral, 1600 mg, Mean of 10 subjects, single 1600 mg dose, Fasted, read-out: AUC0-inf",691 ng·h/mL
same,Cmax,"[1]; human, plasma, oral, 1600 mg, Mean of 10 subjects, single 1600 mg dose, Fasted, read-out: Cmax",622 ng/mL
same,half-life,"[1]; human, plasma, oral, 1600 mg, Mean of 10 subjects, single 1600 mg dose, Fasted, read-out: t½ (converted)",2.48 h
same,AUC0-inf,"[1]; human, plasma, oral, 1600 mg, Mean of 10 subjects, single 1600 mg dose, Fed, read-out: AUC0-inf",1070 ng·h/mL
same,Cmax,"[1]; human, plasma, oral, 1600 mg, Mean of 10 subjects, single 1600 mg dose, Fed, read-out: Cmax",528 ng/mL
same,half-life,"[1]; human, plasma, oral, 1600 mg, Mean of 10 subjects, single 1600 mg dose, Fed, read-out: t½ (converted)",2.56 h
same,AUC0-inf,"[1]; human, plasma, oral, 1600 mg, Median of 10 subjects, single 1600 mg dose, Fasted, read-out: AUC0-inf",737 ng·h/mL
same,Cmax,"[1]; human, plasma, oral, 1600 mg, Median of 10 subjects, single 1600 mg dose, Fasted, read-out: Cmax",685 ng/mL
same,Tmax,"[1]; human, plasma, oral, 1600 mg, Median of 10 subjects, single 1600 mg dose, Fasted, read-out: Tmax",0.5 h
same,half-life,"[1]; human, plasma, oral, 1600 mg, Median of 10 subjects, single 1600 mg dose, Fasted, read-out: t½ (converted)",2.21 h
same,AUC0-inf,"[1]; human, plasma, oral, 1600 mg, Median of 10 subjects, single 1600 mg dose, Fed, read-out: AUC0-inf",1120 ng·h/mL
same,Cmax,"[1]; human, plasma, oral, 1600 mg, Median of 10 subjects, single 1600 mg dose, Fed, read-out: Cmax",449 ng/mL
same,Tmax,"[1]; human, plasma, oral, 1600 mg, Median of 10 subjects, single 1600 mg dose, Fed, read-out: Tmax",1.75 h
same,half-life,"[1]; human, plasma, oral, 1600 mg, Median of 10 subjects, single 1600 mg dose, Fed, read-out: t½ (converted)",2.64 h
same,half-life,"[1]; human, plasma, oral, 1600 mg, individual subjects, single 1600 mg dose, Fed, read-out: t½ (converted)",3 h
same,half-life,"[1]; human, plasma, oral, in most subjects, read-out: terminal half-life",1 to 2 h
same,AUC0-inf,[1]; [3],890 ng·h/mL and 360 ng·h/mL and 529 ng·h/mL and 507 ng·h/mL and 907 ng·h/mL and 809 ng·h/mL and 753 ng·h/mL and 652 ng·h/mL and 720 ng·h/mL and 779 ng·h/mL
same,Cmax,[1]; [3],892 ng/mL and 225 ng/mL and 548 ng/mL and 214 ng/mL and 1000 ng/mL and 860 ng/mL and 305 ng/mL and 909 ng/mL and 822 ng/mL and 442 ng/mL
same,AUC0-inf,[1]; [4],1895 ng·h/mL and 583 ng·h/mL and 939 ng·h/mL and 1116 ng·h/mL and 1225 ng·h/mL and 1209 ng·h/mL and 806 ng·h/mL and 1133 ng·h/mL and 1174 ng·h/mL
same,Cmax,[1]; [4],1510 ng/mL and 381 ng/mL and 199 ng/mL and 100 ng/mL and 444 ng/mL and 592 ng/mL and 454 ng/mL and 346 ng/mL and 760 ng/mL and 493 ng/mL
same,Tmax,[1]; [4],1.5 h and 4 h and 2 h
same,t½,[1]; [4],2.01 h and 2.65 h and 1.80 h and 3.35 h and 2.16 h and 2.63 h and 1.82 h and 2.70 h and 3.48 h
same,subjects with an increase in AUC0-inf under fed conditions,[1]; single 400 mg dose,8 of 10
same,median percentage change in AUC0-inf between the fasted and fed conditions,[1]; single 400 mg dose,26%
same,subjects with an increase in AUC0-inf under fed conditions,[1]; single 1600 mg dose,10 of 10
same,median percentage change in AUC0-inf between the fasted and fed conditions,[1]; single 1600 mg dose,54%
same,half-life,"[2]; human, plasma, oral, n = 10, read-out: T1/2,λz (converted)",1.53 h
same,Vd/F,"[2]; human, plasma, oral, n = 10, read-out: Vss/F",2950 L
same,CLt/F,[2]; n = 10,3800 L/h
same,Vc/F,[2]; n = 10,1975 L
